Laboratory results published in ChEMBL document CHEMBL3864157, “The synthesis and antistaphylococcal activity of dehydroabietic acid derivatives: Modifications at C-12” (2016).
≈ marks a conversion by molar mass, not a printed value.

How the values were obtained:
Assay type in all cases: functional
Staphylococcus aureus [1] = test: Antibacterial activity against Staphylococcus aureus Newman
Staphylococcus aureus [2] = test: Antibacterial activity against linezolid-resistant Staphylococcus aureus NRS-271
Staphylococcus aureus [3] = test: Antibacterial activity against oxacillin/tetracycline-resistant Staphylococcus aureus NRS-100
Staphylococcus aureus [4] = test: Antibacterial activity against erythromycin-resistant Staphylococcus aureus NRS-70
Staphylococcus aureus [5] = test: Antibacterial activity against gentamicin-resistant Staphylococcus aureus NRS-108
Staphylococcus aureus [6] = test: Antibacterial activity against aminoglycosides/tetracycline-resistant Staphylococcus aureus NRS-1

Row | MIC (Staphylococcus aureus [1]) [µg/mL] | SMILES | MIC (Staphylococcus aureus [2]) [µg/mL] | MIC (Staphylococcus aureus [3]) [µg/mL] | MIC (Staphylococcus aureus [4]) [µg/mL] | MIC (Staphylococcus aureus [5]) [µg/mL] | MIC (Staphylococcus aureus [6]) [µg/mL]
1 | 12.5 to 25 (≈ 29.4 to 58.7 µM) | CC(C)c1cc2c(cc1C(=NO)C1CCCCC1)[C@@]1(C)CCC[C@@](C)(C(=O)O)[C@@H]1CC2 |  |  |  |  | 
2 | > 50 | CCC(=NOC)c1cc2c(cc1C(C)C)CC[C@H]1[C@](C)(C(=O)O)CCC[C@]21C |  |  |  |  | 
3 | 5 (≈ 11.5 µM) | CON=C(c1ccccc1)c1cc2c(cc1C(C)C)CC[C@H]1[C@](C)(C(=O)O)CCC[C@]21C |  |  |  |  | 
4 | 40 to 50 (≈ 100 to 125 µM) | CCCC(=NOC)c1cc2c(cc1C(C)C)CC[C@H]1[C@](C)(C(=O)O)CCC[C@]21C |  |  |  |  | 
5 | > 50 | CC(C)C(=NO)c1cc2c(cc1C(C)C)CC[C@H]1[C@](C)(C(=O)O)CCC[C@]21C |  |  |  |  | 
6 | 10 to 12.5 (≈ 23.5 to 29.4 µM) | C=CCON=C(c1cc2c(cc1C(C)C)CC[C@H]1[C@](C)(C(=O)O)CCC[C@]21C)C(C)C |  |  |  |  | 
7 | > 50 | C/C(=N\OCc1ccccc1)c1cc2c(cc1C(C)C)CC[C@H]1[C@](C)(C(=O)O)CCC[C@]21C |  |  |  |  | 
8 | 6.25 to 12.5 (≈ 14.2 to 28.4 µM) | CON=C(c1cccs1)c1cc2c(cc1C(C)C)CC[C@H]1[C@](C)(C(=O)O)CCC[C@]21C |  |  |  |  | 
9 | > 50 | C=CCON=C(CC)c1cc2c(cc1C(C)C)CC[C@H]1[C@](C)(C(=O)O)CCC[C@]21C |  |  |  |  | 
10 | 1.56 to 3.13 (≈ 3.36 to 6.75 µM) | C#CCON=C(c1cccs1)c1cc2c(cc1C(C)C)CC[C@H]1[C@](C)(C(=O)O)CCC[C@]21C |  |  |  |  | 
11 | > 50 | CCC(=NO)c1cc2c(cc1C(C)C)CC[C@H]1[C@](C)(C(=O)O)CCC[C@]21C |  |  |  |  | 
12 | > 50 | CON=C(c1cc2c(cc1C(C)C)CC[C@H]1[C@](C)(C(=O)O)CCC[C@]21C)C1CCCCC1 |  |  |  |  | 

Continued, molecule first:

Row | SMILES | MIC (Staphylococcus aureus [1]) [µg/mL] | MIC (Staphylococcus aureus [2]) [µg/mL] | MIC (Staphylococcus aureus [3]) [µg/mL] | MIC (Staphylococcus aureus [4]) [µg/mL] | MIC (Staphylococcus aureus [5]) [µg/mL] | MIC (Staphylococcus aureus [6]) [µg/mL]
13 | CC(C)c1cc2c(cc1C(=NO)c1ccc(C(F)(F)F)cc1)[C@@]1(C)CCC[C@@](C)(C(=O)O)[C@@H]1CC2 | > 50 |  |  |  |  | 
14 | C=CCON=C(c1cccs1)c1cc2c(cc1C(C)C)CC[C@H]1[C@](C)(C(=O)O)CCC[C@]21C | 25 to 50 (≈ 53.7 to 107 µM) |  |  |  |  | 
15 | C#CCON=C(c1cccc(C(F)(F)F)c1)c1cc2c(cc1C(C)C)CC[C@H]1[C@](C)(C(=O)O)CCC[C@]21C | 1.56 to 3.13 (≈ 2.97 to 5.95 µM) | > 25 | > 25 | > 25 | > 25 | > 25
16 | C=CCON=C(c1cc2c(cc1C(C)C)CC[C@H]1[C@](C)(C(=O)O)CCC[C@]21C)c1ccccc1C(F)(F)F | 0.78 to 1.56 (≈ 1.48 to 2.96 µM) | > 50 | 6.25 to 12.5 (≈ 11.8 to 23.7 µM) | 1.56 to 3.13 (≈ 2.96 to 5.93 µM) | 6.25 to 12.5 (≈ 11.8 to 23.7 µM) | 12.5 to 25 (≈ 23.7 to 47.4 µM)
17 | CCC(=NOCc1ccccc1)c1cc2c(cc1C(C)C)CC[C@H]1[C@](C)(C(=O)O)CCC[C@]21C | > 50 |  |  |  |  | 
18 | CON=C(c1ccc(Cl)cc1Cl)c1cc2c(cc1C(C)C)CC[C@H]1[C@](C)(C(=O)O)CCC[C@]21C | 1.56 to 3.13 (≈ 3.1 to 6.23 µM) | > 25 | > 25 | 1.56 to 3.13 (≈ 3.1 to 6.23 µM) | > 25 | > 25
19 | CC(C)c1cc2c(cc1C(=NO)c1ccccc1C(F)(F)F)[C@@]1(C)CCC[C@@](C)(C(=O)O)[C@@H]1CC2 | 1.56 to 3.13 (≈ 3.2 to 6.42 µM) | 1.56 to 3.13 (≈ 3.2 to 6.42 µM) | 1.56 to 3.13 (≈ 3.2 to 6.42 µM) | 1.56 to 3.13 (≈ 3.2 to 6.42 µM) | 1.56 to 3.13 (≈ 3.2 to 6.42 µM) | 1.56 to 3.13 (≈ 3.2 to 6.42 µM)
20 | CC(C)C(=NOCc1ccccc1)c1cc2c(cc1C(C)C)CC[C@H]1[C@](C)(C(=O)O)CCC[C@]21C | > 50 |  |  |  |  | 
21 | C=CCON=C(c1ccccc1)c1cc2c(cc1C(C)C)CC[C@H]1[C@](C)(C(=O)O)CCC[C@]21C | 1.25 to 2.5 (≈ 2.72 to 5.44 µM) | 1.56 to 2.5 (≈ 3.39 to 5.44 µM) | 1.56 to 2.5 (≈ 3.39 to 5.44 µM) | 1.25 to 1.56 (≈ 2.72 to 3.39 µM) | 1.56 to 2.5 (≈ 3.39 to 5.44 µM) | 2.5 to 3.13 (≈ 5.44 to 6.81 µM)
22 | C=CCON=C(c1cccc(C(F)(F)F)c1)c1cc2c(cc1C(C)C)CC[C@H]1[C@](C)(C(=O)O)CCC[C@]21C | > 50 |  |  |  |  | 
23 | CCCC(=NOCc1ccccc1)c1cc2c(cc1C(C)C)CC[C@H]1[C@](C)(C(=O)O)CCC[C@]21C | > 50 |  |  |  |  | 
24 | CC(C)c1ccc2c(c1)CC[C@H]1[C@](C)(C(=O)O)CCC[C@]21C [DEHYDROABIETIC ACID] | 12.5 to 20 (≈ 41.6 to 66.6 µM) | 12.5 to 25 (≈ 41.6 to 83.2 µM) | 12.5 to 25 (≈ 41.6 to 83.2 µM) | 12.5 to 25 (≈ 41.6 to 83.2 µM) | 12.5 to 25 (≈ 41.6 to 83.2 µM) | 12.5 to 25 (≈ 41.6 to 83.2 µM)
25 | CN(C)[C@@H]1C(O)=C(C(N)=O)C(=O)[C@@]2(O)C(O)=C3C(=O)c4c(O)cccc4[C@@](C)(O)[C@H]3C[C@@H]12 [TETRACYCLINE] | < 0.2 | < 0.2 | < 0.2 | < 0.2 | < 0.2 | > 25
26 | CN[C@H](CC(C)C)C(=O)N[C@H]1C(=O)N[C@@H](CC(N)=O)C(=O)N[C@H]2C(=O)N[C@H]3C(=O)N[C@H](C(=O)N[C@H](C(=O)O)c4cc(O)cc(O)c4-c4cc3ccc4O)[C@H](O)c3ccc(c(Cl)c3)Oc3cc2cc(c3O[C@@H]2O[C@H](CO)[C@@H](O)[C@H](O)[C@H]2O[C@H]2C[C@](C)(N)[C@H](O)[C@H](C)O2)Oc2ccc(cc2Cl)[C@H]1O [VANCOMYCIN] | 0.78 to 1.56 (≈ 0.538 to 1.08 µM) | 0.39 to 0.78 (≈ 0.269 to 0.538 µM) | 0.39 to 0.78 (≈ 0.269 to 0.538 µM) | 0.2 to 0.39 (≈ 0.138 to 0.269 µM) | 0.39 to 0.78 (≈ 0.269 to 0.538 µM) | 1.56 to 3.13 (≈ 1.08 to 2.16 µM)
